The source of these data is paper PMC6218581, “Resurrecting the Regulatory Properties of the Ostreococcus tauri ADP-Glucose Pyrophosphorylase Large Subunit” (Frontiers in Plant Science, 2018).

Experiment [1] deals with T1, OtaS/OtaL ADP-Glc PPase (Ostreococcus tauri, UniProt A0A090M9E5+A0A096P9X2, A0A096P9X2:R476K, form not given).
T1 construct: gene OT_ostta07g03070; heterotetramer alpha2beta2, co-expressed from pMAB5/OtaS and pMAB6/OtaL in E. coli AC70R1-504; DEAE and Resource PHE purification, no tag mentioned
As to the kind of experiment: ADP-[…]Glc formation, activation curve, Hill fit. The format is biochemical. To be noted: allosteric activator; 50 mM HEPPS pH 8.0, 10 mM MgCl2, 1 mM Glc1P, 2.5 mM ATP, 37°C, no Pi; read-out: A0.5.

For experiment [2], the target named is T2, OtaS/OtaL ADP-Glc PPase (Ostreococcus tauri, UniProt A0A090M9E5+A0A096P9X2, A0A096P9X2:L24M). As to the kind of experiment: ADP-[…]Glc formation, activation curve, Hill fit. It counts as biochemical. Further details: gene OT_ostta07g03070; heterotetramer alpha2beta2, co-expressed from pMAB5/OtaS and pMAB6/OtaL in E. coli AC70R1-504; DEAE and Resource PHE purification, no tag mentioned. To be noted: allosteric activator; 50 mM HEPPS pH 8.0, 10 mM MgCl2, 1 mM Glc1P, 2.5 mM ATP, 37°C, no Pi; read-out: A0.5.

Experiment [3] addresses T3, StuSK441A/OtaL hybrid heterotetramer (Solanum tuberosum; Ostreococcus tauri, UniProt A0A096P9X2+P23509, A0A096P9X2:L24M/P23509:K511A).
T3 construct: hybrid heterotetramer: potato tuber small subunit K441A co-expressed with O. tauri large subunit in E. coli AC70R1-504; purified
As to the kind of experiment: ADP-[…]Glc formation, activation curve, Hill fit. It counts as biochemical. As to conditions: read-out: A0.5; allosteric activator; 50 mM HEPPS pH 8.0, 10 mM MgCl2, 1 mM Glc1P, 2.5 mM ATP, 2 mM DTT, 37°C, no Pi.

Experiment [4] addresses T4, OtaS/OtaL ADP-Glc PPase (Ostreococcus tauri, UniProt A0A090M9E5+A0A096P9X2, A0A096P9X2:R476K/A0A090M9E5:K508R, form not given).
T4 construct: gene OT_ostta07g03070; heterotetramer alpha2beta2, co-expressed from pMAB5/OtaS and pMAB6/OtaL in E. coli AC70R1-504; DEAE and Resource PHE purification, no tag mentioned
The experiment is described as follows: ADP-[…]Glc formation, activation curve, Hill fit. As to conditions: allosteric activator; 50 mM HEPPS pH 8.0, 10 mM MgCl2, 1 mM Glc1P, 2.5 mM ATP, 37°C, no Pi; read-out: A0.5. It counts as biochemical.

The target in experiment [5] is T5, StuSK441A/OtaL hybrid heterotetramer (Solanum tuberosum; Ostreococcus tauri, UniProt A0A096P9X2+P23509, A0A096P9X2:R476K/P23509:K511A, form not given).
T5 construct: hybrid heterotetramer: potato tuber small subunit K441A co-expressed with O. tauri large subunit in E. coli AC70R1-504; purified
The experiment is described as follows: ADP-[…]Glc formation, activation curve, Hill fit. The format is biochemical. As to conditions: read-out: A0.5; allosteric activator; 50 mM HEPPS pH 8.0, 10 mM MgCl2, 1 mM Glc1P, 2.5 mM ATP, 2 mM DTT, 37°C, no Pi.

For experiment [6], the target named is T6, OtaS/OtaL ADP-Glc PPase (Ostreococcus tauri, UniProt A0A090M9E5+A0A096P9X2, A0A096P9X2:L24M/A0A090M9E5:K508R). The experiment is described as follows: ADP-[…]Glc formation, activation curve, Hill fit. The format is biochemical. Further details: gene OT_ostta07g03070; heterotetramer alpha2beta2, co-expressed from pMAB5/OtaS and pMAB6/OtaL in E. coli AC70R1-504; DEAE and Resource PHE purification, no tag mentioned. As to conditions: allosteric activator; 50 mM HEPPS pH 8.0, 10 mM MgCl2, 1 mM Glc1P, 2.5 mM ATP, 37°C, no Pi; read-out: A0.5.

The target in experiment [7] is T6, OtaS/OtaL ADP-Glc PPase. Further details: gene OT_ostta07g03070. To be noted: read-out: I0.5; allosteric inhibitor; 3PGA present at its A0.5 (1.6 mM); 50 mM HEPPS pH 8.0, 10 mM MgCl2, 1 mM Glc1P, 2.5 mM ATP, 37°C. The source says: (§1) ADP-Glc PPase activity, inhibition curve, Hill fit on OtaS/OtaL ADP-Glc PPase
The target in experiment [8] is T2, OtaS/OtaL ADP-Glc PPase. More on the design: gene OT_ostta07g03070. As to conditions: read-out: I0.5; allosteric inhibitor; 3PGA present at its A0.5 (0.61 mM); 50 mM HEPPS pH 8.0, 10 mM MgCl2, 1 mM Glc1P, 2.5 mM ATP, 37°C.
Source text: as §1

T2 sequence (A0A090M9E5 entry or part of it): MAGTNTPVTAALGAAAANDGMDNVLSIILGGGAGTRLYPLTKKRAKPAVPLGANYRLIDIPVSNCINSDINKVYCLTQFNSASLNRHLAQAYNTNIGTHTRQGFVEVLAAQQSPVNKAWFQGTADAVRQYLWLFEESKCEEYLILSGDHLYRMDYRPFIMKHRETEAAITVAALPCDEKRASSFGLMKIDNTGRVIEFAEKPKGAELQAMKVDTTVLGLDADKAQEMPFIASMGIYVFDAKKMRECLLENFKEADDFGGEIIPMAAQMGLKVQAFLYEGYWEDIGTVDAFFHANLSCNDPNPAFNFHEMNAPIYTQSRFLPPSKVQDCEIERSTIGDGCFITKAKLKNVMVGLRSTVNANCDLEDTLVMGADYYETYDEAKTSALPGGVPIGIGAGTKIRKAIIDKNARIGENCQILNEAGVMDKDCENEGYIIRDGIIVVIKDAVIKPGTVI
T2 sequence (A0A096P9X2 entry or part of it L24M): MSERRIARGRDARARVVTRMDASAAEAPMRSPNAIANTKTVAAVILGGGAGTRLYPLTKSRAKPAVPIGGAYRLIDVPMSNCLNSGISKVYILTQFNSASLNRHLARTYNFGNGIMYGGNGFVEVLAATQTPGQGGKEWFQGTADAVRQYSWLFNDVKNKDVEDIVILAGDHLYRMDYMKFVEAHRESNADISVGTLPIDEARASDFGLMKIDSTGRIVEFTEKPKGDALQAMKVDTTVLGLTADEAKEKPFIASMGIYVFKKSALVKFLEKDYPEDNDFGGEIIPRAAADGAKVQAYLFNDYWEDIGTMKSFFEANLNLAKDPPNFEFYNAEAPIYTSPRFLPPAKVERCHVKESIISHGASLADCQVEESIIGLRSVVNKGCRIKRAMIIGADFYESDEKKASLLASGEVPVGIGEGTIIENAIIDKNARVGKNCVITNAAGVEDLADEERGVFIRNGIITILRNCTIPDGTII
T6 sequence (A0A090M9E5 entry or part of it K508R): as the sequence (A0A090M9E5 entry or part of it) above, with K443R counted along it
T6 sequence (A0A096P9X2 entry or part of it L24M): as the sequence (A0A096P9X2 entry or part of it L24M) above
T4 sequence (A0A096P9X2 entry or part of it R476K, form open): as the sequence (A0A096P9X2 entry or part of it L24M) above, with M1L, R453K counted along it
T4 sequence (A0A090M9E5 entry or part of it K508R, form open): as the sequence (A0A090M9E5 entry or part of it) above, with K443R counted along it
T1 sequence (A0A096P9X2 entry or part of it R476K, form open): as the sequence (A0A096P9X2 entry or part of it L24M) above, with M1L, R453K counted along it
T1 sequence (A0A090M9E5 entry or part of it, form open): as the sequence (A0A090M9E5 entry or part of it) above
T5 sequence (P23509 73-521 K511A, form open): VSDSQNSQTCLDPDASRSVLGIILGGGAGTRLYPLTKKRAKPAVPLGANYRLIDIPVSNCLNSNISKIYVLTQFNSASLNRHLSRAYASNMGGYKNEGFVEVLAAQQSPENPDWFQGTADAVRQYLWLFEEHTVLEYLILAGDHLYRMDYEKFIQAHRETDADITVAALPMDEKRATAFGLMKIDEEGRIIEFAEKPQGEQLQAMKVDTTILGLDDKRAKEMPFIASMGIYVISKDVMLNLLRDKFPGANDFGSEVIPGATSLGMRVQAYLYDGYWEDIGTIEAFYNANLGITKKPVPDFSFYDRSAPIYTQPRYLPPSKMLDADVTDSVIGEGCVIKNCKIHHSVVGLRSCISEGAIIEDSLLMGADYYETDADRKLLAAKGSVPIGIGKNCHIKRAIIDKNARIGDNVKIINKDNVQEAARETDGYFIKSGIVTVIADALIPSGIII
T5 sequence (A0A096P9X2 entry or part of it R476K, form open): as the sequence (A0A096P9X2 entry or part of it L24M) above, with M1L, R453K counted along it
T3 sequence (A0A096P9X2 entry or part of it L24M): as the sequence (A0A096P9X2 entry or part of it L24M) above
T3 sequence (P23509 73-521 K511A): as the sequence (P23509 73-521 K511A, form open) above

For the molecule `O=C(O)[C@H](O)COP(=O)(O)O` [3PGA], the EC50 came to 190 ± 10 µM at OtaS/OtaL ADP-Glc PPase [1]; 610 ± 30 µM at OtaS/OtaL ADP-Glc PPase [2]; 1200 ± 100 µM in experiment [3]; 740 ± 80 µM at OtaS/OtaL ADP-Glc PPase [4]; 400 ± 20 µM in experiment [5]; 1600 ± 600 µM on OtaS/OtaL ADP-Glc PPase [6].
Turning to `O=P(O)(O)O` [Pi], the IC50 at OtaS/OtaL ADP-Glc PPase [7] was determined as 1600 ± 200 µM; at OtaS/OtaL ADP-Glc PPase [8], 179 ± 4 µM.
